Molecular target: T1, CDK4/cyclin D3 (Homo sapiens, UniProt P11802)
T1 construct: made in house; host or cells: insect cells (baculovirus co-infection)
Assay: Inhibition of CDK4/Cyclin D retinoblastoma kinase activity;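 on % Inhib CDK4/D @ 1 μM: relative to DMSO control wells without compound minus no-enzyme background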
Format: biochemical
Settings: for % Inhib CDK4/D @ 0.1 μM / inhibition at 0.1 µM: test compound at 0.1 μM; for inhibition at 1 µM / % Inhib CDK4/D @ 1 μM: test compound at 1 μM (head line shifted: 'mM' printed beside 'Structure'); for inhibition at 1 µM: read-out: % Inhib CDK4/D @ 1 μM; for % Inhib CDK4/D @ 0.03 / inhibition at 0.03 µM: test compound at 0.03 (unit cell empty, head line shifted; μM); for inhibition at 0.1 µM: read-out: % Inhib CDK4/D @ 0.1 μM; for inhibition at 0.03 µM: read-out: % Inhib CDK4/D @ 0.03
How it was run: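 Human CDK4 with truncated cyclin D3 (1-264) from baculovirus-infected insect cells, 5 nM, phosphorylating His-tagged Rb fragment (386-928) with 25 μM [32P/33P]ATP in pH 7.4 HEPES/MgCl2, 2% DMSO, 30° C., 20 min (60 min for tight binders). Filter capture, phosphorimager; apparent Ki from competitive or tight-binding competitive fits.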

T1 sequence (P11802 whole entry): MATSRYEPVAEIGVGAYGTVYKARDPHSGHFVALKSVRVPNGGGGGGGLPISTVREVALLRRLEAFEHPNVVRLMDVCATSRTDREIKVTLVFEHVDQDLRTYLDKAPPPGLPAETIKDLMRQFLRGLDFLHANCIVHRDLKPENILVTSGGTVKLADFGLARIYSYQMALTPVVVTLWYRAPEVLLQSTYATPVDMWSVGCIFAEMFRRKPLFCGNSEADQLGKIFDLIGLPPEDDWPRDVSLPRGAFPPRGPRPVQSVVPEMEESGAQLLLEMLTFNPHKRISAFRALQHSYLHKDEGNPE
T1 sequence (P30281 1-264 partner limits assumed): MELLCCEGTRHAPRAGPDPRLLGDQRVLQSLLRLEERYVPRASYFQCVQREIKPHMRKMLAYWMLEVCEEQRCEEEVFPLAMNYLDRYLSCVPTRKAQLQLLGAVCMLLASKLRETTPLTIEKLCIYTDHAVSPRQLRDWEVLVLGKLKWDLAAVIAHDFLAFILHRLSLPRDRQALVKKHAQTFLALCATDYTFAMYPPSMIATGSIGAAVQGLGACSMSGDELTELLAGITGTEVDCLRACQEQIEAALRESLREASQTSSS

Row | SMILES | % Inhib CDK4/D @ 0.1 μM | inhibition at 1 µM | % Inhib CDK4/D @ 0.03 | % Inhib CDK4/D @ 1 μM | inhibition at 0.1 µM | inhibition at 0.03 µM
1 | CCN(CC)C(=O)CS(=O)(=O)c1ccc(Nc2nc(N)c(C(=O)c3c(Cl)cccc3Cl)s2)cc1 [DD(161)] | −7% | 9.1% | −9.2% | – | – | –
2 | Cc1noc(C)c1CS(=O)(=O)c1ccc(Nc2nc(N)c(C(=O)c3c(Cl)cccc3Cl)s2)cc1 [DD(162)] | 13% | – | 5.8% | 14% | – | –
3 | CC(CN(C)C)CS(=O)(=O)c1ccc(Nc2nc(N)c(C(=O)c3c(Cl)cccc3Cl)s2)cc1 (stereo not drawn) [DD(163)] | – | 52.8% | – | – | 27% | -5.8%
4 | COC(=O)/C=C/CS(=O)(=O)c1ccc(Nc2nc(N)c(C(=O)c3c(Cl)cccc3Cl)s2)cc1 [DD(164)] | 8.6% | – | −7.4% | −6.9% | – | –
5 | Nc1nc(Nc2ccc(S(=O)(=O)CCN3CCCC3)cc2)sc1C(=O)c1c(Cl)cccc1Cl [DD(167)] | 17% | – | −2.5% | 0.8% | – | –
6 | Nc1nc(Nc2ccc(S(=O)(=O)Cc3ncon3)cc2)sc1C(=O)c1c(Cl)cccc1Cl [DD(168)] | 7.8% | 30.7% | 8.3% | – | – | –
7 | Nc1nc(Nc2ccc(S(=O)(=O)CC3CNC(=O)O3)cc2)sc1C(=O)c1c(Cl)cccc1Cl (stereo not drawn) [DD(169)] | 33% | – | 44% | 36.4% | – | –
8 | Nc1nc(Nc2ccc(S(=O)(=O)CCN3CCCCC3)cc2)sc1C(=O)c1c(Cl)cccc1Cl [DD(171)] | – | – | −29% | 17.1% | 21% | –
9 | Nc1nc(Nc2ccc(S(=O)(=O)CC(=O)Nc3ccccc3)cc2)sc1C(=O)c1c(Cl)cccc1Cl [DD(175)] | – | – | −14% | 12.4% | 23% | –
10 | Nc1nc(Nc2ccc(S(=O)(=O)CC3CC3)cc2)sc1C(=O)c1c(Cl)cccc1Cl [DD(176)] | – | – | – | 5.4% | 13% | 17%
11 | COc1cccc(CS(=O)(=O)c2ccc(Nc3nc(N)c(C(=O)c4c(Cl)cccc4Cl)s3)cc2)c1 [DD(177)] | 15% | – | −29% | 3.2% | – | –
12 | Nc1nc(Nc2ccc(S(=O)(=O)CC3CCCO3)cc2)sc1C(=O)c1c(Cl)cccc1Cl (stereo not drawn) [DD(178)] | 16% | 16.6% | −27% | – | – | –
13 | CN1CCCC1CCS(=O)(=O)c1ccc(Nc2nc(N)c(C(=O)c3c(Cl)cccc3Cl)s2)cc1 (stereo not drawn) [DD(179)] | – | – | −1.1% | 9.4% | 24% | –
14 | CC1(CS(=O)(=O)c2ccc(Nc3nc(N)c(C(=O)c4c(Cl)cccc4Cl)s3)cc2)CO1 (stereo not drawn) [DD(180)] | 13% | – | −14% | 4.2% | – | –
15 | CC(C)OC(=O)CS(=O)(=O)c1ccc(Nc2nc(N)c(C(=O)c3c(Cl)cccc3Cl)s2)cc1 [DD(183)] | 17% | – | 8.6% | 1.9% | – | –
16 | CC(C)=CCS(=O)(=O)c1ccc(Nc2nc(N)c(C(=O)c3c(Cl)cccc3Cl)s2)cc1 [DD(184)] | – | – | 1.6% | −3.3% | 9% | –
17 | CN1CCCC(CS(=O)(=O)c2ccc(Nc3nc(N)c(C(=O)c4c(Cl)cccc4Cl)s3)cc2)C1 (stereo not drawn) [DD(187)] | – | – | 6% | −6.4% | 24% | –
18 | CC(C)CCOC(=O)CS(=O)(=O)c1ccc(Nc2nc(N)c(C(=O)c3c(Cl)cccc3Cl)s2)cc1 [DD(191)] | 31% | – | −24% | 9.3% | – | –
19 | CC(C)CCOC(=O)CS(=O)(=O)c1ccc(Nc2nc(N)c(C(=O)c3c(Cl)cccc3Cl)s2)cc1 [DD(192)] | 11% | – | 5.6% | −29% | – | –
20 | CC(C)CCOC(=O)CS(=O)(=O)c1ccc(Nc2nc(N)c(C(=O)c3c(Cl)cccc3Cl)s2)cc1 [DD(193)] | 31% | – | −2.9% | 61.1% | – | –
21 | CC(C)CCOC(=O)CS(=O)(=O)c1ccc(Nc2nc(N)c(C(=O)c3c(Cl)cccc3Cl)s2)cc1 [DD(194)] | 32% | – | −29% | 6.3% | – | –
22 | Nc1nc(Nc2ccc(S(=O)(=O)Cc3ccccc3)cc2)sc1C(=O)c1c(Cl)cccc1Cl [DD(195)] | – | 22.3% | – | – | 25% | 3.8%
23 | CCC(CC)S(=O)(=O)c1ccc(Nc2nc(N)c(C(=O)c3c(Cl)cccc3Cl)s2)cc1 [DD(196)] | – | 14.4% | – | – | 15% | 1.3%
24 | Nc1nc(Nc2ccc(S(=O)(=O)CCN3CCOCC3)cc2)sc1C(=O)c1c(Cl)cccc1Cl [DD(199)] | – | – | −7.7% | 40.5% | 31% | –
25 | CC(C)(CO)CS(=O)(=O)c1ccc(Nc2nc(N)c(C(=O)c3c(Cl)cccc3Cl)s2)cc1 [DD(200)] | – | – | −13% | 22.4% | 22% | –
26 | CCN(CC)C(=O)CS(=O)(=O)c1ccc(Nc2nc(N)c(C(=O)c3c(Cl)cccc3Cl)s2)cc1 [DD(201)] | 36% | – | 3.5% | 10.3% | – | –
27 | Cc1noc(C)c1CS(=O)(=O)c1ccc(Nc2nc(N)c(C(=O)c3c(Cl)cccc3Cl)s2)cc1 [DD(202)] | 29% | – | 17% | 45.2% | – | –
28 | COC(=O)/C=C/CS(=O)(=O)c1ccc(Nc2nc(N)c(C(=O)c3c(Cl)cccc3Cl)s2)cc1 [DD(203)] | 37% | – | −5.5% | 33.7% | – | –
29 | COC(=O)/C=C/CS(=O)(=O)c1ccc(Nc2nc(N)c(C(=O)c3c(Cl)cccc3Cl)s2)cc1 [DD(204)] | 29% | – | −3.4% | 20.8% | – | –

The remaining lines, values ahead:

Row | % Inhib CDK4/D @ 0.1 μM | inhibition at 1 µM | % Inhib CDK4/D @ 0.03 | % Inhib CDK4/D @ 1 μM | inhibition at 0.1 µM | inhibition at 0.03 µM | SMILES
30 | 10% | – | −1.8% | 34.3% | – | – | Nc1nc(Nc2ccc(S(=O)(=O)CCCO)cc2)sc1C(=O)c1c(Cl)cccc1Cl [DD(165)]
31 | – | – | 3.5% | 14.5% | 14% | – | C=CCCS(=O)(=O)c1ccc(Nc2nc(N)c(C(=O)c3c(Cl)cccc3Cl)s2)cc1 [DD(166)]
32 | – | 25.8% | – | – | 18% | 22% | CN(C)CCCS(=O)(=O)c1ccc(Nc2nc(N)c(C(=O)c3c(Cl)cccc3Cl)s2)cc1 [DD(170)]
33 | – | – | −26% | 24.9% | 24% | – | Nc1nc(Nc2ccc(S(=O)(=O)CC3CO3)cc2)sc1C(=O)c1c(Cl)cccc1Cl (stereo not drawn) [DD(172)]
34 | – | – | −11% | 14.5% | 17% | – | CC(C)CCS(=O)(=O)c1ccc(Nc2nc(N)c(C(=O)c3c(Cl)cccc3Cl)s2)cc1 [DD(173)]
35 | – | – | −16% | 24.6% | 24% | – | COCCS(=O)(=O)c1ccc(Nc2nc(N)c(C(=O)c3c(Cl)cccc3Cl)s2)cc1 [DD(174)]
36 | – | 27.5% | −10% | – | 28% | – | NC(=O)CS(=O)(=O)c1ccc(Nc2nc(N)c(C(=O)c3c(Cl)cccc3Cl)s2)cc1 [DD(181)]
37 | 17% | – | −12% | 5.4% | – | – | CCOC(=O)CCS(=O)(=O)c1ccc(Nc2nc(N)c(C(=O)c3c(Cl)cccc3Cl)s2)cc1 [DD(182))]
38 | – | – | 8.5% | 22.3% | 33% | – | CCCS(=O)(=O)c1ccc(Nc2nc(N)c(C(=O)c3c(Cl)cccc3Cl)s2)cc1 [DD(185)]
39 | – | – | 7% | 38.9% | 26% | – | COC(=O)CS(=O)(=O)c1ccc(Nc2nc(N)c(C(=O)c3c(Cl)cccc3Cl)s2)cc1 [DD(186)]
40 | – | 25.9% | −11% | – | 35% | – | NC(=O)CCS(=O)(=O)c1ccc(Nc2nc(N)c(C(=O)c3c(Cl)cccc3Cl)s2)cc1 [DD(188)]
41 | – | – | −19% | 32.2% | 31% | – | Nc1nc(Nc2ccc(S(=O)(=O)CCO)cc2)sc1C(=O)c1c(Cl)cccc1Cl [DD(189)]
42 | – | – | −21% | 33.4% | 25% | – | CC(C)CCCS(=O)(=O)c1ccc(Nc2nc(N)c(C(=O)c3c(Cl)cccc3Cl)s2)cc1 [DD(190)]
43 | – | – | 6.5% | 62.3% | 37% | – | CC(=O)OCCS(=O)(=O)c1ccc(Nc2nc(N)c(C(=O)c3c(Cl)cccc3Cl)s2)cc1 [DD(197)]
44 | – | 5.1% | – | – | 9.2% | -24% | CC(C)OC(=O)CCS(=O)(=O)c1ccc(Nc2nc(N)c(C(=O)c3c(Cl)cccc3Cl)s2)cc1 [DD(198)]
45 | 43% | – | −4.1% | 56.4% | – | – | Nc1nc(Nc2ccc(S(=O)(=O)CCCO)cc2)sc1C(=O)c1c(Cl)cccc1Cl [DD(205)]
46 | 24% | – | −11% | 47.3% | – | – | C=CCCS(=O)(=O)c1ccc(Nc2nc(N)c(C(=O)c3c(Cl)cccc3Cl)s2)cc1 [DD(206)]
